Experimental data: article PMC10056899, “Neuroprotective and Antiherpetic Properties of Polyphenolic Compounds from Maackia amurensis Heartwood” (Molecules, 2023)
Several values for one entry are separate records, joined by “and”; a condition that tells them apart may be missing. Equal entries are not always repeated.

Legend:
[1] = Cytotoxicity against Vero cells (MTT assay); type: cell-based; conditions: African green monkey (Chlorocebus sp.)
Procedure: (§1) The HSV-1 strain L2 and Vero cell culture (kidney epithelial cells of the African green monkey Chlorocebus sp.) were obtained from the N.F. Gamaleya Federal Research Centre for Epidemiology and Microbiology (Moscow, Russia). HSV-1 was grown in Vero cells, using Dulbecco′s Modified Eagle′s Medium (DMEM, Biolot, St. Petersburg, Russia) supplemented with 10% fetal bovine serum (FBS, Biolot, St. Petersburg, Russia) and 100 U/mL of gentamycin (Dalkhimpharm, Khabarovsk, Russia), at 37 °C in a CO2 incubator. In the maintenance medium, the FBS concentration was decreased to 1%.
(§2) The tested compounds were dissolved in DMSO (Sigma, St. Louis, MO, USA) at a concentration 10 mg/mL and stored at −20 °C. For cytotoxicity and anti-HSV-1 activity determination, the stock solutions were diluted with DMEM so that the final concentration of DMSO was 0.5%.
The cytotoxicity evaluation of the studied compounds was performed using the MTT assay, as described previously. In brief, confluent Vero cells in 96-well microplates (1 × 10^4 cells/well) were incubated with tested compounds at various concentrations (1–500 μg/mL) at 37 °C for 48 h (5% CO2). Untreated cells were used as controls. Then, MTT solution (methylthiazolyltetrazolium bromide, Sigma, St. Louis, MO, USA) was added to cells at a concentration of 5 mg/mL and the cells were incubated at 37 °C for 2 h. After dissolution of formazan crystals, optical densities were read at 540 nm (Labsystems Multiskan RC, Vantaa, Finland). […] [42]. Experiments were performed in triplicate and repeated three times.

[2] = Ferric reducing antioxidant power (FRAP) assay; conditions: 4 min, pH 3.6
Procedure: The FRAP assay was carried out as described in [41]. We prepared FRAP reagent by mixing 2.5 mL of TPTZ (2,4,6-tris(2-pyridyl)-s-triazine) solution (10 mM) in 40 mM HCl and […] of FeCl3 solution (20 mM) in acetate buffer solution (300 mM, pH 3.6). Then, we added stilbenes 1–6 to 3 mL of FRAP reagent at concentrations from 1 to 34 µM. The mixture was kept in the dark at room temperature for 4 min. Then, we measured the absorbance at 595 nm using a Shimadzu UV 1240 spectrophotometer. Equation (2) was used to calculate the FRAP values of stilbenes 1–6:(2) FRAP=CFe/Cx, where: • CFe is the concentration of Fe^2+ (µM) formed in the reaction; • Cx is the concentration of polyphenolic compounds in the reacting mixture.
The concentration of Fe^2+ (µM) formed in the reaction was determined using the calibration curve obtained for different concentrations of FeSO4·7H2O.

[3] = tested on: PQ-treated Neuro-2a cells; experiment: Mitochondrial membrane potential in PQ-treated cells (TMRM); type: cell-based, murine; conditions: 0.1 μM
Procedure: […] Then, we added PQ (500 μM) and kept the cell suspension in a CO2-incubator for 1 h. Cells incubated without PQ and stilbenes and with PQ only were used as positive and negative control, respectively. We added the tetramethylrhodamine methyl (TMRM) (Sigma-Aldrich, St. Louis, MO, USA) solution (500 nM) to each well and kept the cells for 30 min in a CO2-incubator at 37 °C. The intensity of fluorescence was measured with a PHERAstar […] reader (BMG Labtech, Ortenberg, Germany) at λex = 540 nm and λem = 590 nm. We processed the data by MARS Data Analysis v. 3.01R2 (BMG Labtech, Ortenberg, Germany) and presented the results as percentages of the positive control value.

[4] = Cytotoxic activity against Neuro-2a cells (MTT assay); type: cell-based, murine; conditions: mouse, Neuro-2a neuroblastoma cells, data not shown, read-out: EC50 of cell viability reduction (cytotoxic activity)
Procedure: We purchased the murine neuroblastoma cell line Neuro-2a (CCL-131) from the American Type Culture Collection (ATCC®) (Manassas, VA, USA). We cultured Neuro-2a cells in Dulbecco′s Modified Eagle Medium (Biolot, St. Petersburg, Russia), which contained 10% fetal bovine serum (Biolot, St. Petersburg, Russia) and 1% penicillin/streptomycin (Biolot, St. Petersburg, Russia). We incubated the cells at 37 °C in a humidified atmosphere containing 5% (v/v) CO2.
We prepared the stock solutions of stilbenes in DMSO at a concentration of 10 mM. Compounds 1–6 were added to the wells of the plates in a volume of 20 μL diluted in PBS at the following final concentrations: 0.1, 1.0, and 10.0 µM (final concentration of DMSO <1%).
Neuro-2a cells (1 × 10^4 cells/well) were kept in a CO2 incubator at 37 °C for 24 h until they formed an adherent monolayer. Then, 20 μL of stilbenes solution was added to the cells. After incubation for 24 h, the medium containing the stilbenes was replaced by 100 μL of fresh DMEM medium. Then, we added 10 μL of MTT (3-(4,5-dimethylthiazol-2-yl)-2,5-diphenyltetrazolium bromide) (Sigma-Aldrich, St. Louis, MO, USA) stock solution (5 mg/mL) to each well and incubated the microplate for 4 h. […] After incubation for 18 h, we measured the absorbance of the converted dye formazan on a Multiskan FC microplate photometer (Thermo Scientific, Waltham, MA, USA) at a wavelength of 570 nm. […]

[5] = DPPH radical scavenging assay; conditions: 20 min
Procedure: The DPPH (2,2-diphenyl-1-picrylhydrazyl) scavenging effect of polyphenolic compounds 1-6 from M. amurensis heartwood was evaluated as described previously in [40]. Stilbenes were added to DPPH solution in MeOH (10^−4 M) at a concentration range from 1 to 34 µM. The mixture was kept in the dark at room temperature for 20 min. Then, we measured the absorbance at 517 nm using a Shimadzu UV 1240 spectrophotometer (Shimadzu, Kyoto, Japan). The DPPH radical-scavenging effect (%) of the stilbenes was calculated using Equation (1): (1) DPPH scavenging effect, %=A0−Ax/A0×100, where: • A0 is the absorbance of DPPH solution without polyphenolic compounds (blank sample); • Ax is the absorbance of DPPH solution in the presence of different concentrations of polyphenolic compounds.
Quercetin and ascorbic acid were used as reference compounds. All experiments were performed in triplicate. The half maximal inhibitory concentration (IC50) for polyphenolic compounds was calculated by plotting the DPPH scavenging effect (%) against the concentrations of polyphenolic compounds. IC50 values are given as the mean ± SEM.

[6] = tested on: PQ-treated Neuro-2a cells; experiment: Intracellular ROS level in PQ-treated cells (H2DCF-DA); type: cell-based, murine; conditions: Mus musculus, N2a, 0.1 μM (minimum studied concentration), PQ 1 mM
Procedure: After 24 h of adhesion, Neuro-2a cells (1 × 10^4 cells/well) were incubated with stilbenes (0.01–10 µM) for 1 h. After that, we added PQ (1 mM) to each well and incubated the cells for 3 h. To study ROS formation, we added 20 µL of 2,7-dichlorodihydrofluorescein diacetate solution ([…], H2DCF-DA, Molecular Probes, Eugene, OR, USA) to each well, so that the concentration was 10 µM, and kept the microplate in a CO2–incubator for additional 30 min at 37 °C.

HSV-1 = experiment: Anti-HSV-1 activity, cytopathic effect (CPE) inhibition assay in Vero cells; type: cell-based, HSV-1 strain L2
Procedure: as §1, §2
The anti-HSV-1 activity of stilbenes was evaluated using cytopathic effect (CPE) inhibition assay in Vero cells. We infected the monolayer of cells grown in 96-well plates (1 × 10^4 cells/well) with 100 µL/well of virus suspension (100 TCD50/mL) and we simultaneously treated it with stilbenes 1–6 (100 µL/well) at various concentrations (from 1 to 400 μg/mL) for one hour at 37 ◦C. After virus absorption, we removed the mixture of virus and stilbenes, washed the cells, and added the maintenance medium with 1% FBS. […] We used MTT assay to evaluate the antiviral activity of stilbenes. The viral inhibition rate (IR, %) was calculated according to Equation (3):(3) IR, %=Atv−Acv/Acd−Acv×100, where: • Atv is the absorbance of cells infected with virus and treated with a polyphenolic compound; • Acv is the absorbance of the untreated virus-infected cells; • Acd is the absorbance of control (untreated and non-infected) cells.
The selectivity index (SI) was calculated as the ratio of CC50 to IC50. Experiments were repeated three times.

In the case of Oc1cc(O)cc(/C=C/c2ccc3c(c2)O[C@H](c2cc(O)cc(O)c2)[C@@H](c2ccc(O)c(O)c2)O3)c1 [Compound 3, maackin], the CC50 at 48 h [1] is reported as 270 µg/mL and 555 µM, the “FRAP CFe2+(µM)/Cpolyphenolic compound (µM)” value [2] is reported as 10.11 ± 0.93 CFe2+(µM)/Cpolyphenolic compound (µM) and the “FRAP CFe2+(µM)/Cpolyphenolic compound (μkg/mL)” value [2] is reported as 20.80 ± 1.91 CFe2+(µM)/Cpolyphenolic compound (μkg/mL). For the same compound, the “Increase of mitochondrial membrane potential compared to PQ-treated cells” value [3] was 16%, the EC50 at 24 h [4] was 87.7 µM and the “DPPH Scavenging Effect IC50” value [5] was 1.31 ± 0.15 µg. The IC50 ([5]; read-out: DPPH Scavenging Effect IC50) was 2.7 ± 0.3 µM, the inhibition at 0.1 µM [6] was 17% and the IC50 (HSV-1; Human alphaherpesvirus 1, Vero, read-out: IC50 (CPE assay)) was 17.6 µg/mL and 36.2 µM. The “SI = CC50/IC50” value (HSV-1; Vero cells, HSV-1) was 15.3 ± 1.9.
